In patent US4377592A, “Antiarrhythmic activity of cetiedil” (Innothera, priority 1979, dated 1983):
Where a name gives a salt, the structure may show the parent alone. Read-outs that look alike come from different tables or passages of the source.

Assays:
[1] = tested on: ventricular fibrillation induced by CaCl2; assay: Calcium (CaCl2) induced ventricular fibrillation in the anaesthetized rat, Malinow's technique; type: in vivo; details: for index LD50/AD50 (ventricular fibrillation): Table 2; for RELATIVE ACTIVITY (ventricular fibrillation): Table 2, relative to cetiedil = 1; for RELATIVE ACTIVITY (death): Table 3, relative to cetiedil = 1
Method: According to MALINOW, M. R., et coll. Acta. Physiol Latino. Americ.
Using the anaesthetized rat, 200 mg/kg of CaCl2 was injected two minutes after the substances to be tested. The ECG was recorded continuously in lead II.

[2] = tested on: polymorphous arrhythmias induced by adrenaline petrol-ether; assay: Polymorphous arrhythmias induced in the anaesthetised guinea-pig by adrenaline and petrol ether; type: in vivo; details: for ED50: Cavia porcellus, ip, read-out: ED50 (dose decreasing by half the duration of the disturbances); for index I = LD50 IV/ED50: Table 1, adrenaline petrol-ether, guinea-pig ED50, mouse LD50; for RELATIVE ACTIVITY: Table 1, relative to cetiedil = 1
From the text: Adrenaline in high dosage is a powerful arrhythmogenic stimulus to a myocardia induced by petrol ether, as recognized in the guinea-pig by LE MARECHAL J., Thesis Doct.

[3] = tested on: chloroform-induced ventricular fibrillation; assay: Chloroform-induced ventricular fibrillation in the mouse; type: in vivo
From the text: In this technique first described by LAWSON, J. W. in J. Pharm. Exp. Ther. 1968, 160, 22 and Vargaftig, B. B. et al in Eur. J. Pharmacol. 1969, 6, 49, the inhalation of chloroform vapour produced in the mouse apnea followed by ventricular fibrillation.
The mechanism of this technique remains unknown.

in vivo = details: mouse, iv
[4] = tested on: chloroform-induced ventricular fibrillation; details: mouse, chloroform test, IP; other substances from Linee thesis 1975; cited from earlier work
[5] = tested on: rabbit cornea oculo-palpebral reflex; type: in vivo; details: for TOTAL DEGREE OF ANAESTHESIA FOR 60 minutes: rabbit cornea, 1.00 g./100, HCl salt, total 13 no anaesthesia, 1300 complete; for local anaesthetic effect compared with cetiedil 0.5%: rabbit
From the text: For the purpose of this study, the classical technique of REGNIER J., Thesis Doct. […] This consists of repeating touching of the rabbit cornea until an oculo-palpebral reflex is obtained. It should be noted that […], in common with the reference substances, was used in the form of the HCl Salt.

[6] = tested on: isolated guinea-pig atrial; assay: Stimulated isolated guinea pig atrial (technique of Dawes); type: cell-based
From the text: (§1) The technique of DAWES (modified by ALLIES ET AL.) was used with the isolated guinea-pig atrial, and the technique of DUCHENE-MARULLAZ, J. Pharmacol. Paris, 1970, 1, 539, in the anaesthetized dog. This method is used to study the permeability of atrio-ventricular conduction, and thus more precisely conduction at the level of Tawara's nod.

rat aortic fragments = assay: Contraction of rat aorta fragment induced by potassium depolarisation; type: cell-based; details: mean ± SD, potassium depolarisation
Method: Fragments of aorta removed from rats are immersed in survival fluid in the presence of carbogene at 37° C. By modifying the ionic equilibrium of the survival medium, it was possible to study the effects of […] on contraction of the aortic fragments induced by depolarisation with potassium or calcium.

[7] = tested on: ventricular tachycardia induced by Ouabain; assay: Ouabain induced ventricular tachycardia in the dog (Lucchesi and Hardman); type: in vivo; details: at the average effective dose
From the text: The method used is that of […] and HARDMAN, J. Pharmacol. Exp. Ther. 1961, 132, 372-381. Ventricular tachycardia was obtained by the sequential administration of Ouabain until a permanent ventricular tachycardia developed. Following observation of the effect of the substance, the reappearance of this ventricular tachycardia following the injection of insulin was confirmed, thereby showing the persistence within the heart of a toxic dose of Ouabain (Average dose of Ouabain 71.25 γ kg IV).

[8] = tested on: atrio-ventricular conduction; assay: Atrio-ventricular conduction in the anaesthetized dog (Duchene-Marullaz); type: in vivo
From the text: as §1

[9] = Rattus norvegicus, iv, read-out: AD50 protection against death
[10] = Rattus norvegicus, iv, read-out: AD 50 protection against ventricular fibrillation
[11] = anaesthetized rat, CaCl2 200 mg/kg IV two minutes after substance, read-out: AD 50 protection against ventricular fibrillation
[12] = guinea-pig, urethane 1.2 g/kg IP, substance 5 minutes before intoxication
[13] = mouse, chloroform vapour inhalation, IP, read-out: ED50

**Q.** Which ED50 [1, 9] does the source give for `CC[C@H]1[C@@H]2C[C@H]3[C@@H]4N(C)c5ccccc5[C@]45C[C@@H]([C@H]2[C@H]5O)N3[C@@H]1O` [Ajmaline] here?
**A.** The ED50 was over 5 mg/kg.

**Q.** And the ED50 [1, 10]?
**A.** The ED50 was 2.25 mg/kg.

**Q.** What about the “index LD50/AD50 (ventricular fibrillation)” value [1] of the same compound?
**A.** Its value is 11,56.

**Q.** And the “RELATIVE ACTIVITY (ventricular fibrillation)” value [1]?
**A.** Its value is 0,62.

**Q.** What about the protection against death ([1]; rat, dose of 5 mg/kg) of the same compound?
**A.** The protection against death was “none against death”.

**Q.** What about the “protection against ventricular fibrillation” value ([1]; rat, dose of 5 mg/kg) of the same compound?
**A.** Its value is “protected all of the animals against ventricular fibrillation”.

**Q.** And the ED50 [2]?
**A.** Its ED50 is 0.6 mg/kg.

**Q.** What about the “index I = LD50 IV/ED50” value [2] of the same compound?
**A.** Its value is 43.33.

**Q.** What about the “RELATIVE ACTIVITY” value [2] of the same compound?
**A.** The value was 0.91.

**Q.** And the ED50 ([3]; Mus musculus, ip)?
**A.** Its ED50 is 6.6 mg/kg.

**Q.** And the LD50 (in vivo)?
**A.** The LD50 was 26 mg/kg.

**Q.** For `CN1[C@@H]2CC[C@H]1C[C@@H](OC(=O)C(CO)c1ccccc1)C2` (stereo partly drawn) [Atropine], which ED50 [4] is on record?
**A.** The ED50 was 100 mg/kg IP.

**Q.** What does the source list for `COC(=O)[C@H]1[C@@H](OC(=O)c2ccccc2)C[C@@H]2CC[C@H]1N2C` [COCAINE]?
**A.** TOTAL DEGREE OF ANAESTHESIA FOR 60 minutes [5]: 706.4; local anaesthetic effect compared with cetiedil 0.5% ([5]; 1 p.100): same effect

**Q.** What does the source list for `CC(C)N(CCC(C(N)=O)(c1ccccc1)c1ccccn1)C(C)C` (stereo not drawn) [DISOPYRAMIDE]?
**A.** % DECREASE SPONTANEOUS RATE ([6]; concentration 10^-5): 8%; % DECREASE m.f.s. (maximum frequency followed by the atrial) ([6]; concentration 10^-5): 18%; % DECREASE SPONTANEOUS RATE ([6]; concentration 10^-6): 6%; % DECREASE m.f.s. (maximum frequency followed by the atrial) ([6]; concentration 10^-6): 6%

**Q.** For `CN(C)CCCN1c2ccccc2CCc2ccccc21` [Imipramine], which ED50 [4] is on record?
**A.** Its ED50 is 30 mg/kg IP.

**Q.** With `CCN(CC)CCOC(=O)c1ccc(N)cc1` [PROCAINE] as the compound, how does the “TOTAL DEGREE OF ANAESTHESIA FOR 60 minutes” value [5] read?
**A.** Its value is 61.5.

**Q.** What about the “local anaesthetic effect compared with cetiedil 0.5%” value ([5]; 1 p.100) of the same compound?
**A.** The value was “only half less active”.

**Q.** What about the “pD'2 (mean)” value (rat aortic fragments) of the same compound?
**A.** Its value is 2.55 ± 0.06.

**Q.** Which results are given for `CCN(CC)CCNC(=O)c1ccc(N)cc1` [Procainamide]?
**A.** ED50 [1, 9]: 17 mg/kg; index LD50/AD50 (ventricular fibrillation) [1]: 7,24; RELATIVE ACTIVITY (ventricular fibrillation) [1]: 0,39; index LD50/AD50 (death) ([1]; Table 3): 6.18; RELATIVE ACTIVITY (death) [1]: 0.38; ED50 [1, 11]: 14.5 mg/kg; ED50 [2, 12]: 1.4 mg/kg; index I = LD50 IV/ED50 [2]: 75.00; RELATIVE ACTIVITY [2]: 1.58; ED50 [3, 13]: 80 mg/kg; LD50 (in vivo): 105 mg/kg

**Q.** Which “TOTAL DEGREE OF ANAESTHESIA FOR 60 minutes” value [5] does the source give for `CC(C)NCC(O)COc1cccc2ccccc12` (stereo not drawn) [Propranolol] here?
**A.** The value was 876.5.

**Q.** What about the “local anaesthetic effect compared with cetiedil 0.5%” value ([5]; in vivo) of the same compound?
**A.** Its value is “same effect”.

**Q.** And the “% DECREASE m.f.s. (maximum frequency followed by the atrial)” value ([6]; concentration 10^-6)?
**A.** Its value is 34%.

**Q.** And the “% DECREASE m.f.s. (maximum frequency followed by the atrial)” value ([6]; concentration 10^-7)?
**A.** Its value is 7%.

**Q.** And the ED50 [1, 9]?
**A.** Its ED50 is 3.9 mg/kg.

**Q.** What about the “RELATIVE ACTIVITY (ventricular fibrillation)” value [1] of the same compound?
**A.** Its value is 0,36.

**Q.** And the “RELATIVE ACTIVITY (death)” value [1]?
**A.** Its value is 0.35.

**Q.** And the ED50 [1, 11]?
**A.** Its ED50 is 3.25 mg/kg.

**Q.** What about the ED50 [2, 12] of the same compound?
**A.** Its ED50 is 0.38 mg/kg.

**Q.** And the “RELATIVE ACTIVITY” value [2]?
**A.** The value was 1.22.

**Q.** With `C=C[C@H]1C[N@@]2CC[C@H]1C[C@@H]2[C@@H](O)c1ccnc2ccc(OC)cc12` [Quinidine sulfate, reference compound] as the compound, how does the “duration of return to sinus rhythm” value [7] read?
**A.** Its value is “less than 30 min”.

**Q.** Which results are given for `C=C[C@H]1C[N@@]2CC[C@H]1C[C@@H]2[C@@H](O)c1ccnc2ccc(OC)cc12` [Quinidine]?
**A.** % DECREASE SPONTANEOUS RATE ([6]; concentration 10^-5): 15%; % DECREASE m.f.s. (maximum frequency followed by the atrial) ([6]; concentration 10^-5): 25%; % DECREASE SPONTANEOUS RATE ([6]; concentration 10^-6): 3%; % DECREASE m.f.s. (maximum frequency followed by the atrial) ([6]; concentration 10^-6): 10%; % DECREASE SPONTANEOUS RATE ([6]; concentration 10^-7): 0%; effect on atrio-ventricular conduction after denervation ([8]; anaesthetized dog, denervated): Depression of atrio-ventricular conduction is significant and proportional to the dose administered; effect on atrio-ventricular conduction ([8]; anaesthetized dog, intact): not changed in the intact animal; chronotropic effect ([8]; dog): positive or negative action according to whether the dog is intact or denervated; ED50 [1, 9]: 8 mg/kg; ED50 [1, 10]: 5.5 mg/kg; ED50 [3, 13]: 26 mg/kg; LD50 (in vivo): 67 mg/kg

**Q.** With `COC(=O)[C@@H]1[C@H]2C[C@H]3c4[nH]c5ccccc5c4CCN3C[C@@H]2CC[C@@H]1O` [Yohimbine] as the compound, how does the ED50 [4] read?
**A.** Its ED50 is 10 mg/kg IP.
